Experiment [1] concerns the target Beta-2 adrenergic receptor (Cavia porcellus) (UniProt Q8K4Z4). The following applies: Trachea.
Experiment [2] has the same target. In words: Antagonist activity at beta 2 adrenergic receptor in guinea pig trachea assessed as inhibition of trimetoquinol-induced tracheal relaxation at 10^-4 M preincubated for 30 mins followed by trimetoquinol addition measured within 1 hr.
Experiment [3] has as its target Beta-1 adrenergic receptor (Cavia porcellus) (UniProt B0FL73). The experiment is described as follows: Antagonist activity at beta 1 adrenergic receptor in guinea pig right atria assessed as inhibition of trimetoquinol-induced chronotropic response at 10^-4 M preincubated for 30 mins followed by trimetoquinol addition measured within 45 mins relative to control.
Experiment [4] shares this target. The experiment is described as follows: Competitive antagonist activity at beta 1 adrenergic receptor in guinea pig right atria assessed as inhibition of trimetoquinol-induced chronotropic response at 10^-6 to 10^-5 M preincubated for 30 mins followed by trimetoquinol addition measured within 1 hr.
The target is the same in experiment [5]. In words: Antagonist activity at beta 1 adrenergic receptor in guinea pig right atria assessed as inhibition of 10^-3 M isoproterenol-induced chronotropic response at 10^-4 M.
For experiment [6] the target is unchanged. In words: Antagonist activity at beta 1 adrenergic receptor in guinea pig right atria assessed as inhibition of 10^-3 M trimetoquinol-induced chronotropic response at 10^-4 M preincubated for 30 mins followed by trimetoquinol addition measured within 1 hr.
For experiment [7], the target named is Beta-2 adrenergic receptor (Rattus norvegicus) (UniProt P10608). In words: Agonist activity at beta 2 adrenergic receptor in Sprague-Dawley rat adipocytes assessed as lipolysis at 10^-9 to 10^-4 M after 1 hr. The experiment is classed as cell-based.
Chain of Beta-2 adrenergic receptor (Rattus norvegicus) (P10608 whole entry, looked up): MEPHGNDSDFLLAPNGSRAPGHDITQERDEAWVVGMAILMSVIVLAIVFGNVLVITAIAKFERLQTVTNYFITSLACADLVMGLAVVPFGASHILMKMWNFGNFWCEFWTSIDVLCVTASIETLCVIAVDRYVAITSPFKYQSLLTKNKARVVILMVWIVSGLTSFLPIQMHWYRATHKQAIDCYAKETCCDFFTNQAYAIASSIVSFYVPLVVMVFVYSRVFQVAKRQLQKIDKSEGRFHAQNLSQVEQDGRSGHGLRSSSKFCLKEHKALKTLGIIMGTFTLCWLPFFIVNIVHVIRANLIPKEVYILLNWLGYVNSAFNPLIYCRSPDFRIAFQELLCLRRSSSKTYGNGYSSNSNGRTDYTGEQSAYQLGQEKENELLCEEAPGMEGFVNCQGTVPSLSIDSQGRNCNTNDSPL
Experiment [8] has as its target Beta-2 adrenergic receptor (Cavia porcellus) (UniProt Q8K4Z4). The experiment is described as follows: Agonist activity at beta 2 adrenergic receptor in guinea pig trachea assessed as tracheal relaxation at 10^-9 to 10^-4 M.
The target of experiment [9] is Beta-1 adrenergic receptor (Cavia porcellus) (UniProt B0FL73). In words: Partial agonist activity at beta 1 adrenergic receptor in guinea pig right atria assessed as chronotropic response measured over 3 mins.
Chain of Beta-1 adrenergic receptor (Cavia porcellus) (B0FL73 1-467): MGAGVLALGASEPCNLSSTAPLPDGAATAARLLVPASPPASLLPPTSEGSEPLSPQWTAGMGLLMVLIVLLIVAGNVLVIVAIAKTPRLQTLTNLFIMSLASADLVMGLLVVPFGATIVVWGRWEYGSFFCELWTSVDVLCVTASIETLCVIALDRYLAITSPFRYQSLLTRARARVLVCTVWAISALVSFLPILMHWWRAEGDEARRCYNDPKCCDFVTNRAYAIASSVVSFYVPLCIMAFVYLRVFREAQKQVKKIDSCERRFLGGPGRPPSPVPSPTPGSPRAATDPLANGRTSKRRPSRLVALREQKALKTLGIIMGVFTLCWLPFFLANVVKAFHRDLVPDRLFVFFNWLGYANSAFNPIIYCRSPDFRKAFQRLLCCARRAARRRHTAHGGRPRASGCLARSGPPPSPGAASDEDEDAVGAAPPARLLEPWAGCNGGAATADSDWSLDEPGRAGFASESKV

Active and inactive are the calls of the source. No cut-off for these calls is given here.

Chain of Beta-2 adrenergic receptor (Cavia porcellus) (Q8K4Z4 whole entry, looked up): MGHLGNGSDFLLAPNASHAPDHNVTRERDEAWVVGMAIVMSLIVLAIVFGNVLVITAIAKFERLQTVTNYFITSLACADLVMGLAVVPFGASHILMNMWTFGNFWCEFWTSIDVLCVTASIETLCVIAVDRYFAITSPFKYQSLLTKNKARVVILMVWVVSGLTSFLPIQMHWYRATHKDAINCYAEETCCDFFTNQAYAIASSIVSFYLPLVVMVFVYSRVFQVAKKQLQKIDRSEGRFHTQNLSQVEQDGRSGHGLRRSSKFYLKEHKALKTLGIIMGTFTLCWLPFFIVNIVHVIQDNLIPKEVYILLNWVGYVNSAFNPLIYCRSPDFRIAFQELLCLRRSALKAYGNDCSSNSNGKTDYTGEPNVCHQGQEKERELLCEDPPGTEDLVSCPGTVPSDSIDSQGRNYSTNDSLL

Consider `COc1cc(C[C@@H]2NCCc3cc(O)c(O)cc32)cc(OC)c1OC`, for which the pD2 in experiment [1] was 7.
For `COc1cc(CC2(Cc3ccccc3)NCCc3cc(O)c(O)cc32)cc(OC)c1OC` (configuration not stated), the inhibition (commonly the drop in the measured response relative to a control, in per cent) in experiment [2] is “inactive”. In experiment [3], the inhibition is less than 10%. The inhibition entry in experiment [4], in experiment [5] and in experiment [6] was “Active” each time. In addition, the result in experiment [7] and in [8] was inactive.
As for `COc1cc(CC2(C)NCCc3cc(O)c(O)cc32)cc(OC)c1OC` (configuration not stated), the inhibition result in [2] is “inactive”. In addition, the result in experiment [9] was Active. Also, the result in [7] and in experiment [8] was inactive.

Values taken from ChEMBL document CHEMBL3272303.
